Measured values reported in publication PMC11174489, “In Vitro Activation of Human Adrenergic Receptors and Trace Amine-Associated Receptor 1 by Phenethylamine Analogues Present in Food Supplements” (Nutrients, 2024).
pEC50: −log10 of the molar value. Where two headings read alike, the source gives them in different places.

Experiments:
[1] = target: T1, human adrenergic receptor (ADR) β1 (Homo sapiens, UniProt P08588); experiment: ADRβ1 activation, Ca2+ influx (Fluo-8) in overexpressing chem-1 cells; assay type: cell-based; details: for ADRβ1 Emax: % of maximal signal obtained by adrenaline, average (95% CI); for Emax: Chem-1, read-out: ADRβ1 Emax; for potency at ADRβ1, times less potent than adrenaline: relative to the endogenous agonist adrenaline
T1 construct: host or cells: rat chem-1 cells
T1 sequence (P08588 whole entry): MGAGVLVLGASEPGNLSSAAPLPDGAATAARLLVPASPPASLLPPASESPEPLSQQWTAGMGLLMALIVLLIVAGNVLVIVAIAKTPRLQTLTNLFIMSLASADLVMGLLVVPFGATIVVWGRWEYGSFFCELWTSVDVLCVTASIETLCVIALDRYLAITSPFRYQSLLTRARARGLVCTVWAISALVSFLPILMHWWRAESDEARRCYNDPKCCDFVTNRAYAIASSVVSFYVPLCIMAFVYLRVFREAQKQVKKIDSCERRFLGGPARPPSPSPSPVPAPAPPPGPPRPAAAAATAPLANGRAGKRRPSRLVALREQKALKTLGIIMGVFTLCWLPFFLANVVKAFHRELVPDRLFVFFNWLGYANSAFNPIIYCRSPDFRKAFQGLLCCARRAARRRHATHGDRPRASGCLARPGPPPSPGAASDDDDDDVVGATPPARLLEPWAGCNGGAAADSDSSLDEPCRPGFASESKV
Description: Cells overexpressing human ADRs α1A, α1B, α1D, α2A, α2B, β1 and β2 (Eurofins Discovery Services, St. Charles, MO, USA, product numbers: HTS087RTA, HTS158RTA, HTS216RTA, HTS096RTA, HTS157LRTA, HTS104RTA and HTS073RTA, respectively) were used to study the potency (EC50) and efficacy (Emax) of the selected compounds for these receptors by quantifying Ca^2+ influx upon receptor activation. ADRα1A, α1B, α1D, α2A, β1 and β2 were overexpressed in rat chem-1 cells. ADRα2B was overexpressed in HEK293 cells. The cells were seeded (10,000–50,000 cells/well) in a black 96-well plate (VWR International, Leuven, Belgium) and incubated at 37 °C and 5% CO2 for 24 h. After 24 h, the cells were washed with Hank’s balanced salt solution (HBSS) (Gibco, Paisley, UK) containing 0.35 g/L sodium bicarbonate and incubated with 5 µg/mL Fluo-8 AM in HBSS (pH 7.4) supplemented with 2.5 mM probenecid for 1 h. […] Peak tops of the obtained fluorescence response–time curves were corrected for baseline fluorescence and used to construct concentration–response relationships.
Concentration–response relationships for TAAR1 activation are presented as percentages of the maximal intracellular cAMP level induced by full the TAAR1 agonist phenethylamine and corrected for baseline cAMP accumulation. […] Experiments were run in duplicate in 7–9 independent experiments for ADR and were run in 3–5 independent experiments for TAAR1.

[2] = target: T2, human trace amine-associated receptor 1 (TAAR1) (Homo sapiens, UniProt Q96RJ0); experiment: TAAR1 activation, intracellular cAMP (ELISA) in HEK293T cells stably expressing human TAAR1; assay type: cell-based; details: for pEC50: cAMP, HEK293T-hTAAR1 cells, 1 h exposure, average (95% confidence interval), 3–5 experiments; for Emax at 300 µM / Emax: HEK-293T; for Emax at 300 µM: read-out: TAAR1 effect at 300 µM, at 300 µM, % of the maximal effect obtained by phenethylamine, compounds that showed only an effect at 300 µM
T2 construct: expressed in transfected cells
T2 sequence (Q96RJ0 1-339): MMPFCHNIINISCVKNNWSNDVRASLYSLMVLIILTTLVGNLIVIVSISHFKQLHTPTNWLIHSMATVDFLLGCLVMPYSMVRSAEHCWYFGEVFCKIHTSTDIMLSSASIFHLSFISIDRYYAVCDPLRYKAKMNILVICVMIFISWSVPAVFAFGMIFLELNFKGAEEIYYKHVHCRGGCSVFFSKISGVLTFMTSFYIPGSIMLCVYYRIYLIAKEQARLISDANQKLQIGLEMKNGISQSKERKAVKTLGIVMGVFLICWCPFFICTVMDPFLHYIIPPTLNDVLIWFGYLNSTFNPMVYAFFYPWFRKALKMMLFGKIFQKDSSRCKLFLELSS
Description: The cells were seeded (90,000–250,000 cells/well) in a 48-well plate two days before the assay. Two hours before the assay, the cells were incubated with the culture medium containing 10% charcoal-stripped foetal bovine serum (Gibco, Grand Island, NY, USA). The assay was performed in Earle’s balanced salt solution (EBSS) (Gibco, Paisley, UK), containing 15 mM HEPES (Gibco, Paisley, UK), 1 mM IBMX and 0.02% ascorbic acid. First, the cells were pre-incubated for 20 min in the supplemented buffer. Subsequently, the cells were exposed to the test compounds for 1 h in an incubator at 37 °C with 5% CO2. After 1 h, the buffer was discarded and the cells were lysed with 3% trichloroacetic acid and incubated at room temperature on a plate shaker for 2 h. Cell lysates were further diluted and cAMP was measured using a cAMP ELISA kit (Cayman Chemical, Ann Arbor, MI, USA), according to the manufacturer’s protocol.
Concentration–response relationships are shown as mean ± SD.

[3] = parameters: method as in earlier work; details: humans; ref 47 (Feng et al. 2012); cited from earlier work
[4] = parameters: method as in PMID 33227193, PMID 31984737; details: humans, n = 3, cited from earlier work
[5] = % of maximal cAMP level obtained by phenethylamine, average (95% CI)

CC(C)CC(C)N (stereo not drawn)
pEC50 [1]: < 3.52
ADRβ1 Emax [1]: -
pEC50 [2]: < 3.52

CC(C)CCCC(C)N (stereo not drawn)
pEC50 [1]: < 3.52
ADRβ1 Emax [1]: -
Emax at 300 µM [2]: 36%
pEC50 [2]: < 3.52

CCC(C)CC(C)N (stereo not drawn) [1,3-Dimethylamylamine, 1,3-dimethylamylamine]
pEC50 [1]: < 3.52
ADRβ1 Emax [1]: -
Emax at 300 µM [2]: 52%
pEC50 [2]: < 3.52

CN(C)CCO [Dimethylaminoethanol, dimethylaminoethanol]
pEC50 [1]: < 3.52
ADRβ1 Emax [1]: -
Emax at 300 µM [2]: ~5%
pEC50 [2]: < 3.52

CN(C)CCc1ccccc1 [Dimethylphenethylamine, N,N-dimethylphenethylamine]
pEC50 [1]: < 3.52
ADRβ1 Emax [1]: -
Emax [2, 5]: 64%
pEC50 [2]: 4.68

CNCC(O)c1ccccc1 (stereo not drawn) [Halostachine, halostachine]
pEC50 [1]: < 3.52
ADRβ1 Emax [1]: -
Emax [2, 5]: 104%
pEC50 [2]: 4.13

Oc1ccc(CC2NCCc3cc(O)c(O)cc32)cc1 (stereo not drawn) [Higenamine, higenamine]
maximal plasma concentration [3]: 8.4 nM
pEC50 [1]: 7.47
Emax [1]: 105%
potency at ADRβ1, times less potent than adrenaline [1]: ~3 times
Emax [2, 5]: 93%
pEC50 [2]: 6.01

CN(C)CCc1ccc(O)cc1 [Hordenine, hordenine]
Human plasma level ([4]; 5.5 mg oral dose): 15 nM
Human plasma level ([4]; 100 mg oral dose): 2.7 nM
pEC50 [1]: < 3.52
ADRβ1 Emax [1]: -
Emax [2, 5]: 82%
pEC50 [2]: 4.33

CC(C)NCC(O)c1ccc(O)cc1 (stereo not drawn) [Isopropyloctopamine, isopropyloctopamine]
Emax [2, 5]: 40%
pEC50 [2]: 5.74

CNC(C)C(O)c1ccc(O)cc1 (stereo not drawn) [Methylsynephrine]
pEC50 [1]: 4.60
Emax [1]: 75%
potency at ADRβ1, times less potent than adrenaline [1]: approximately 2500 times
TAAR1 Emax [2, 5]: -
pEC50 [2]: < 3.52
activation of TAAR1 ([2]; concentrations up to 300 µM): did not activate

NCCc1ccccc1 [Phenethylamine, phenethylamine]
pEC50 [1]: < 3.52
ADRβ1 Emax [1]: -
Emax [2, 5]: 97%
pEC50 [2]: 5.06

NCCc1ccc(O)cc1 [Tyramine, tyramine]
Emax [2, 5]: 77%
pEC50 [2]: 5.02

NCC(O)c1ccc(O)cc1 (stereo not drawn) [p-Octopamine, p-octopamine]
Emax [2, 5]: 85%
pEC50 [2]: 4.34

CNCC(O)c1ccc(O)cc1 (stereo not drawn) [p-Synephrine, p-synephrine]
Emax [2, 5]: 85%
pEC50 [2]: 4.04

CC(CN)c1ccccc1 (stereo not drawn) [β-Methylphenethyl-amine, beta-methylphenethylamine]
pEC50 [1]: < 3.52
ADRβ1 Emax [1]: -
Emax [2, 5]: 77%
pEC50 [2]: 5.68
